Reference: US4916141A, “(S)-7-(3-amino-1-pyrrolidinyl)-1-cyclop ropyl-6-fluoro-1,4-dihydro-4-oxo-1,8-naphthyridine-3-carboxylic acid” (Warner-Lambert Company, priority 1989, dated 1990)
In brackets after ≈: the same amount, converted by molar mass. Counter-ions that a name gives are not always drawn.

Experiments:
[1] = tested on: Enterobacter cloacae MA 2646; assay: microtitration dilution MIC; type: cell-based; details: MA2646, read-out: minimum inhibitory concentration (MIC)
Excerpt: (§1) The compounds of the invention display antibacterial activity when tested by the microtitration dilution method as described in Heifetz, et al, […]. Agents and Chemot. 6, 124 (1974), which is incorporated herein by reference. […] Pat. No. 4,649,144.

Escherichia coli Vogel [2] = assay: microtitration dilution MIC; type: cell-based; details: read-out: minimum inhibitory concentration (MIC)
Excerpt: as §1

[3] = tested on: Klebsiella pneumoniae MGH-2; assay: microtitration dilution MIC; type: cell-based; details: MGH2, read-out: minimum inhibitory concentration (MIC)
Excerpt: as §1

Proteus rettgeri M 1771 = assay: microtitration dilution MIC; type: cell-based; details: Providencia rettgeri, M1771, read-out: minimum inhibitory concentration (MIC)
Excerpt: as §1

[4] = tested on: Pseudomonas aeruginosa UI-18; assay: microtitration dilution MIC; type: cell-based; details: UI18, read-out: minimum inhibitory concentration (MIC)
Excerpt: as §1

[5] = tested on: Staphylococcus aureus H 228; assay: microtitration dilution MIC; type: cell-based; details: H228, read-out: minimum inhibitory concentration (MIC)
Excerpt: as §1

[6] = tested on: Staphylococcus aureus UC-76; assay: microtitration dilution MIC; type: cell-based; details: UC76, read-out: minimum inhibitory concentration (MIC)
Excerpt: as §1

[7] = tested on: Staphylococcus faecalis MGH-2; assay: microtitration dilution MIC; type: cell-based; details: MGH2, read-out: minimum inhibitory concentration (MIC)
Excerpt: as §1

[8] = tested on: Streptococcus pneumoniae SV-1; assay: microtitration dilution MIC; type: cell-based; details: SV1, read-out: minimum inhibitory concentration (MIC)
Excerpt: as §1

[9] = tested on: Streptococcus pyogenes C-203; assay: microtitration dilution MIC; type: cell-based; details: C203, read-out: minimum inhibitory concentration (MIC)
Excerpt: as §1

Escherichia coli Vogel [10] = assay: acute mouse protection test (PD50); type: in vivo, mouse (female Charles River CD-1); details: for median protective dose (PD50) P.O.: oral; for median protective dose (PD50) S.C.: subcutaneous
Experimental: (§2) The in vivo experiments on the bacteria named are expressed in terms of median protective doses (PD50) on the test animals to which the compounds were administered orally and subcutaneously. The measurement of PDso was carried out according to the following procedure:
(§3) Therapeutic activities of the compounds were compared in acute mouse protection tests in which 18-22 g female Charles River CD-1 mice were used. Oral and subcutaneous doses in twofold rising incremental series were administered concurrently with bacterial challenge. Challenges were accomplished by the intraperitoneal injection of an estimated 100 median lethal doses in 0.5 ml volumes of 5% hog gastric mucin or tryptic soy broth. Generally, greater than 90% of the untreated controls died within 48-72 hours. Final survival percentages, obtained after 4-7 days of observation among groups of 8-16 mice, were used to estimate median protective doses (PD50) by the log-probit method.

[11] = tested on: Pseudomonas aeruginosa UI-18; assay: acute mouse protection test (PD50); type: in vivo, mouse (female Charles River CD-1); details: for median protective dose (PD50) P.O.: oral; for median protective dose (PD50) S.C.: subcutaneous
Experimental: as §2, §3

[12] = tested on: Staphylococcus faecalis MGH-2; assay: acute mouse protection test (PD50); type: in vivo, mouse (female Charles River CD-1); details: for median protective dose (PD50) P.O.: oral; for median protective dose (PD50) S.C.: subcutaneous
Experimental: as §2, §3

[13] = tested on: Streptococcus pneumoniae SV-1; assay: acute mouse protection test (PD50); type: in vivo, mouse (female Charles River CD-1); details: for median protective dose (PD50) P.O.: oral; for median protective dose (PD50) S.C.: subcutaneous
Experimental: as §2, §3

[14] = tested on: gram-positive and gram-negative bacteria; assay: antibacterial activity in vitro and in vivo (summary statement); details: in vitro as well as in vivo
Excerpt: The compounds of the invention display antibacterial activity when tested by the microtitration dilution method as described in Heifetz, et al, Antimicr. Agents and Chemot. 6, 124 (1974), which is incorporated herein by reference. By the use of the above reference method, the following minimum inhibitory concentration values (MICs in μg/ml) were obtained for the compound of the present invention, (S)-7-(3-amino-1-pyrrolidinyl)-1-cyclopropyl-6-fluoro-1,4-dihydro-4-oxo-1,8-naphthyridine-3-carboxylic acid, the corresponding (R) isomer and the racemic compound as described in U.S. Pat. No. 4,649,144.
as §2
as §3, with “Final survival percentages, obtained after 4-7 days of observation among groups of 8-16 mice, were used to estimate median protective doses (PD50) by the log-probit method.” left out

SMILES	MIC [1] [µg/mL]	MIC (Escherichia coli Vogel [2]) [µg/mL]	MIC [3] [µg/mL]	MIC (Proteus rettgeri M 1771) [µg/mL]	MIC [4] [µg/mL]	MIC [5] [µg/mL]	MIC [6] [µg/mL]	MIC [7] [µg/mL]	MIC [8] [µg/mL]	MIC [9] [µg/mL]	median protective dose (PD50) P.O. (Escherichia coli Vogel [10])	median protective dose (PD50) S.C. (Escherichia coli Vogel [10])	median protective dose (PD50) P.O. [11]	median protective dose (PD50) S.C. [11]	median protective dose (PD50) P.O. [12]	median protective dose (PD50) S.C. [12]	median protective dose (PD50) P.O. [13]	median protective dose (PD50) S.C. [13]	antibacterial activity compared with R isomer and racemic compound [14]	antibacterial activity compared with R isomer and racemic compound ([14]; listed as S form)
N[C@H]1CCN(c2nc3c(cc2F)c(=O)c(C(=O)O)cn3C2CC2)C1 ["S" Isomer, (S)-7-(3-Amino-1-pyrrolidinyl)-1-cyclopropyl-6-fluoro-1,4-dihydro-4-oxo-1,8-naphthyridine-3-carboxylic acid]	0.013 (≈ 0.0391 µM)	0.006 (≈ 0.0181 µM)	0.013 (≈ 0.0391 µM)	0.025 (≈ 0.0752 µM)	0.1 (≈ 0.301 µM)	0.05 (≈ 0.15 µM)	0.013 (≈ 0.0391 µM)	0.1 (≈ 0.301 µM)	0.05 (≈ 0.15 µM)	0.05 (≈ 0.15 µM)	0.7	0.35	3.5	2.1	19	14	19	9	not only better than its opposite R isomer but also better than the racemic compound	significantly better activity against both gram-positive and gram-negative bacteria in vitro as well as in vivo
N[C@@H]1CCN(c2nc3c(cc2F)c(=O)c(C(=O)O)cn3C2CC2)C1 ["R" Isomer, (R)-7-(3-Amino-1-pyrrolidinyl)-1-cyclopropyl)-6-fluoro-1,4-dihydro-4-oxo-1,8-naphthyridine-3carboxylic acid hydrochloride]	0.025	0.013	0.025	0.05	0.4	0.2	0.05	0.2	0.1	0.2	0.51	0.35			45	34				
NC1CCN(c2nc3c(cc2F)c(=O)c(C(=O)O)cn3C2CC2)C1 (racemic) [Racemic, 7-(3-amino-1-pyrrolidinyl)-1-Cyclopropyl-6-fluoro-1,4-dihydro-4-oxo-1,8-naphthyridine-3-carboxylic acid]	0.025 (≈ 0.0752 µM)	0.013 (≈ 0.0391 µM)	0.025 (≈ 0.0752 µM)	0.1 (≈ 0.301 µM)	0.05 (≈ 0.15 µM)	0.2 (≈ 0.602 µM)	0.013 (≈ 0.0391 µM)	0.2 (≈ 0.602 µM)	0.2 (≈ 0.602 µM)	0.2 (≈ 0.602 µM)	2.0	0.6	7.3	3.2	58	33	32	14		
